Biological target: T1, Urease Enzyme from Canavalia ensiformis (Jack bean) (Canavalia ensiformis, UniProt P07374)
T1 construct: purchased
Assay: Headspace ammonia measurement over treated cat litter inoculated with synthetic urine and urease
Assay type: biochemical
Conditions: headspace ammonia after 1 day; 100 g NATIONAL 12 Bentonite cat litter plus active, 10 mL inoculant (urea solution + urease); Sensidyne detector tubes
Protocol: In a bottle add the following components: Urea (ACS Reagent Grade): 18.8 g, and 250 g of deionized water. The bottle is capped and mixed to dissolve urea. The pH of the solution is measured to confirm the pH is between 6.5 and 7.
Immediately before use, mix 6.25 mL of Urease Enzyme from Canavalia ensiformis (Jack bean) in Glycerol (Type III, 500-800 units/mL) with the full volume of Synthetic Urine prepared above.
Charge a plastic bag with 100 g of untreated NATIONAL™ 12 Bentonite (particle size approximately 1.6 mm) cat litter. Add the active component or mixture, as prepared in the Active Mixture Preparation section, to the bag containing the untreated litter. Seal the bag to prevent loss of material and mix by shaking for 30 seconds. Pour the mixture into a hexagonal plastic weighboat contained within a 1 gallon sealable plastic container having a lid with a hole covered with tape. […]
Low (0.2-20 ppm) or high (5-260 ppm) range […] ® Ammonia Gas Detector Tubes are used to quantify the headspace ammonia concentration. The following procedure is used for ammonia detection and quantification in each test sample. […] Read the scale at the maximum point of the stained layer (yellow in color). Read and report the concentration immediately after measurement. If the reading is off scale, for example 20 ppm for the low range tubes, repeat the measurement using the high range gas detector tube. […]

T1 sequence (P07374 whole entry, looked up): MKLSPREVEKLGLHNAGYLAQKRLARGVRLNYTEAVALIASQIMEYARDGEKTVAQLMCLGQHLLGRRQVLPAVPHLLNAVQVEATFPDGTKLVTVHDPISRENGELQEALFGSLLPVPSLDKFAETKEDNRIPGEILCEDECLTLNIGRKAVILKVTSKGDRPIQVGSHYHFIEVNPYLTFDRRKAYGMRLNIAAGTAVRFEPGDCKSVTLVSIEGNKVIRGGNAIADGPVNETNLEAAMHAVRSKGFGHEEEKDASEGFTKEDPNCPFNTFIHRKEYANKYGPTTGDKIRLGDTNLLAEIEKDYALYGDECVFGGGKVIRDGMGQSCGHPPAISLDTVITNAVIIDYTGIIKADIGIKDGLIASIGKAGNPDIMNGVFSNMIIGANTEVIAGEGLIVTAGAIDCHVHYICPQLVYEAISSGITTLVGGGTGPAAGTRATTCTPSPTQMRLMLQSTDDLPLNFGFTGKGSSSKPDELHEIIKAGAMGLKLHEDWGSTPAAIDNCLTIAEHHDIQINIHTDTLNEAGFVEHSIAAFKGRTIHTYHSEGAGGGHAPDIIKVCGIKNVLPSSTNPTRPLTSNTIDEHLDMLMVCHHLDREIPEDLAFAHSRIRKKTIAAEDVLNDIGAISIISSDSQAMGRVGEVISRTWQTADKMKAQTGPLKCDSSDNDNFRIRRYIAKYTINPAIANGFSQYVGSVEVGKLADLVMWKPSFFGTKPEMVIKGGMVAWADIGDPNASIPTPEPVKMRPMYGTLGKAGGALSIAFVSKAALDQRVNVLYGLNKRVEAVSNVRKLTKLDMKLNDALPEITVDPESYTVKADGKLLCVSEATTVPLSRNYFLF

| SMILES | ppm Ammonia |
| --- | --- |
| O=C(O)CC(O)(CC(=O)O)C(=O)O [Example 3, Citric Acid] | 140 ppm |
| O=C([O-])CN(CCN(CC(=O)[O-])CC(=O)O)CC(=O)O.[K+].[K+] [Example 2, K2EDTA] | 190 ppm |

— patent publication US20200009281A1, “ODOR CONTROL AGENT” (priority 2017, published 2020)
